Source: ChEMBL document CHEMBL3244371, “An approach to peripheral vasodilator-beta-adrenergic blocking agents” (J Med Chem, 1977)

Key:
Rattus norvegicus [1] = assay: Antihypertensive activity in spontaneously hypertensive rat assessed as duration of effect at 0.312 mg/kg, po; assay type: functional
Canis familiaris [2] = assay: Blockade of isoprolerenol-induced tachycardia in iv dosed anesthetized trachea-cannulated mongrel dog assessed as heart rate; assay type: functional; conditions: Canis lupus familiaris
Rattus norvegicus [3] = assay: Antihypertensive activity in spontaneously hypertensive rat assessed as duration of effect at 5 mg/kg, po; assay type: functional
Rattus norvegicus [4] = assay: Antihypertensive activity in spontaneously hypertensive rat assessed as duration of effect at 1.25 mg/kg, po; assay type: functional
Canis familiaris [5] = assay: Peripheral vasodilating activity in anesthetized trachea-cannulated mongrel dog assessed as increase in iliac blood flow at 60 ug administered intraarterially in presence of isoproterenol; assay type: functional, Canis lupus familiaris, Artery
Rattus norvegicus [6] = assay: Antihypertensive activity in spontaneously hypertensive rat assessed as maximum fall in mean arterial pressure at 1.25 mg/kg, po; assay type: functional, Artery
Rattus norvegicus [7] = assay: Antihypertensive activity in spontaneously hypertensive rat assessed as maximum fall in mean arterial pressure at 5 mg/kg, po; assay type: functional, Artery
Rattus norvegicus [8] = assay: Antihypertensive activity in spontaneously hypertensive rat assessed as maximum fall in mean arterial pressure at 0.312 mg/kg, po; assay type: functional, Artery
Canis familiaris [9] = assay: Blockade of isoprolerenol-induced hypotension in iv dosed anesthetized trachea-cannulated mongrel dog assessed as mean arterial pressure; assay type: functional; conditions: Canis lupus familiaris, Artery
Canis familiaris [10] = assay: Peripheral vasodilating activity in anesthetized trachea-cannulated mongrel dog assessed as increase in iliac blood flow at 800 ug administered intraarterially in presence of isoproterenol; assay type: functional, Canis lupus familiaris, Artery
Rattus norvegicus [11] = assay: Antihypertensive activity in spontaneously hypertensive rat assessed as duration of effect at 8 mg/kg, po; assay type: functional
Canis familiaris [12] = assay: Toxicity in renal hypertensive dog assessed as elevation in heart rate at 4 to 16 mg/kg; assay type: organism-based, Canis lupus familiaris; design: dose 4-16 mg/kg; conditions: in vivo
Canis familiaris [13] = assay: Peripheral vasodilating activity in anesthetized trachea-cannulated mongrel dog assessed as increase in iliac blood flow at 800 ug administered intraarterially co-treated with 320 ug/kg timolol in presence of isoproterenol; assay type: functional, Canis lupus familiaris, Artery
Rattus norvegicus [14] = assay: Antihypertensive activity in spontaneously hypertensive rat assessed as maximum fall in mean arterial pressure at 2 mg/kg, po; assay type: functional, Artery
Canis familiaris [15] = assay: Peripheral vasodilating activity in anesthetized trachea-cannulated mongrel dog assessed as increase in iliac blood flow at 800 ug administered intraarterially co-treated with 800 ug/kg timolol in presence of isoproterenol; assay type: functional, Canis lupus familiaris, Artery
Rattus norvegicus [16] = assay: Antihypertensive activity in spontaneously hypertensive rat assessed as duration of effect at 2 mg/kg, po; assay type: functional
Rattus norvegicus [17] = assay: Antihypertensive activity in spontaneously hypertensive rat assessed as maximum fall in mean arterial pressure at 1 mg/kg, po; assay type: functional, Artery
Rattus norvegicus [18] = assay: Antihypertensive activity in spontaneously hypertensive rat assessed as maximum fall in mean arterial pressure at 8 mg/kg, po; assay type: functional, Artery
Rattus norvegicus [19] = assay: Antihypertensive activity in spontaneously hypertensive rat assessed as duration of effect at 1 mg/kg, po; assay type: functional
Rattus norvegicus [20] = assay: Antihypertensive activity in spontaneously hypertensive rat assessed as maximum fall in mean arterial pressure at 20 mg/kg, ip; assay type: functional, Artery; conditions: route intraperitoneal
Canis familiaris [21] = assay: Peripheral vasodilating activity in anesthetized trachea-cannulated mongrel dog assessed as increase in iliac blood flow at 1600 ug administered intraarterially in presence of isoproterenol; assay type: functional, Canis lupus familiaris, Artery
Rattus norvegicus [22] = assay: Antihypertensive activity in spontaneously hypertensive rat assessed as maximum fall in mean arterial pressure at 20 mg/kg, po; assay type: functional, Artery
Canis familiaris [23] = assay: Peripheral vasodilating activity in anesthetized trachea-cannulated mongrel dog assessed as increase in iliac blood flow at 1600 ug administered intraarterially co-treated with 2000 ug/kg timolol in presence of isoproterenol; assay type: functional, Canis lupus familiaris, Artery
Canis familiaris [24] = assay: Peripheral vasodilating activity in anesthetized trachea-cannulated mongrel dog assessed as increase in iliac blood flow at 1600 ug administered intraarterially co-treated with 800 ug/kg timolol in presence of isoproterenol; assay type: functional, Canis lupus familiaris, Artery
Rattus norvegicus [25] = assay: Antihypertensive activity in spontaneously hypertensive rat assessed as duration of effect at 20 mg/kg, ip; assay type: functional; conditions: route intraperitoneal
Rattus norvegicus [26] = assay: Antihypertensive activity in spontaneously hypertensive rat assessed as duration of effect at 20 mg/kg, po; assay type: functional
Canis familiaris [27] = assay: Peripheral vasodilating activity in anesthetized trachea-cannulated mongrel dog assessed as increase in iliac blood flow at 16 ug administered intraarterially co-treated with 2000 ug/kg timolol in presence of isoproterenol; assay type: functional, Canis lupus familiaris, Artery
Canis familiaris [28] = assay: Peripheral vasodilating activity in anesthetized trachea-cannulated mongrel dog assessed as increase in iliac blood flow at 16 ug administered intraarterially in presence of isoproterenol; assay type: functional, Canis lupus familiaris, Artery
Canis familiaris [29] = assay: Peripheral vasodilating activity in anesthetized trachea-cannulated mongrel dog assessed as increase in iliac blood flow at 32 ug administered intraarterially co-treated with 2000 ug/kg timolol in presence of isoproterenol; assay type: functional, Canis lupus familiaris, Artery
Canis familiaris [30] = assay: Peripheral vasodilating activity in anesthetized trachea-cannulated mongrel dog assessed as increase in iliac blood flow at 8 ug administered intraarterially co-treated with 2000 ug/kg timolol in presence of isoproterenol; assay type: functional, Canis lupus familiaris, Artery
Canis familiaris [31] = assay: Peripheral vasodilating activity in anesthetized trachea-cannulated mongrel dog assessed as increase in iliac blood flow at 8 ug administered intraarterially in presence of isoproterenol; assay type: functional, Canis lupus familiaris, Artery
Canis familiaris [32] = assay: Peripheral vasodilating activity in anesthetized trachea-cannulated mongrel dog assessed as increase in iliac blood flow at 32 ug administered intraarterially in presence of isoproterenol; assay type: functional, Canis lupus familiaris, Artery

SMILES | ED50 (Canis familiaris [2]) | Time (Rattus norvegicus [3]) | Time (Rattus norvegicus [4]) | Activity (Rattus norvegicus [6]) | Activity (Rattus norvegicus [7]) | ED50 (Canis familiaris [9]) | Activity (Rattus norvegicus [20]) | Activity (Canis familiaris [21]) | Activity (Rattus norvegicus [22]) | Activity (Canis familiaris [23]) | Time (Rattus norvegicus [25]) | further results
CC(C)(C)NC[C@H](O)COc1ccc(-c2nc(C(F)(F)F)c[nH]2)cc1 | 0.0076 mg/kg | >24 h | 18 h | 40 mmHg | 56 mmHg | 0.038 mg/kg |  |  |  |  |  | Time (Rattus norvegicus [1]): 12 h; Activity (Canis familiaris [5]): 5 mL/min; Activity (Rattus norvegicus [8]): 24 mmHg
FC(F)(F)c1cnc(-c2cccnc2)[nH]1 |  |  |  |  |  |  |  |  |  |  |  | Activity (Canis familiaris [10]): 93 mL/min; Time (Rattus norvegicus [11]): >6 h; Activity (Canis familiaris [12]): 82 bpm; Activity (Canis familiaris [13]): 99 mL/min; Activity (Rattus norvegicus [14]): 39 mmHg; Activity (Canis familiaris [15]): 76 mL/min; Time (Rattus norvegicus [16]): 6 h; Activity (Rattus norvegicus [17]): 21 mmHg; Activity (Rattus norvegicus [18]): 48 mmHg; Time (Rattus norvegicus [19]): 2 h
CC(C)(C)NC[C@H](O)COc1ncccc1-c1ncc(C(F)(F)F)[nH]1 | 0.25 mg/kg |  |  |  |  | 0.125 mg/kg | 8 mmHg | 4 mL/min | 6 mmHg | 9 mL/min |  | 
CC(C)(C)NC[C@H](O)COc1ccc(-c2ncc(C(F)(F)F)[nH]2)cn1 | 0.0025 mg/kg |  |  |  |  | 0.058 mg/kg | 40 mmHg | 103 mL/min | 0 mmHg |  | >7 h | Activity (Canis familiaris [24]): 38 mL/min
CC(C)(C)NC[C@H](O)COc1ccccc1-c1ncc(C(F)(F)F)[nH]1 | 0.3 mg/kg |  |  |  |  | 0.1 mg/kg | 32 mmHg | 35 mL/min | 0 mmHg | 33 mL/min | <7 h | 
CC(C)(C)NC[C@H](O)COc1cccc(-c2ncc(C(F)(F)F)[nH]2)c1 | > 1 mg/kg |  |  |  |  | 0.086 mg/kg | 40 mmHg |  | 5 mmHg |  | >7 h | 
CC(C)(C)NC[C@@H](O)COc1ccc(-c2ncc(C(F)(F)F)[nH]2)cc1 | 0.102 mg/kg | 6 h | 2 h | 16 mmHg | 22 mmHg | > 1 mg/kg |  |  | 49 mmHg |  |  | Time (Rattus norvegicus [26]): 8 h
CC(C)(C)NCC(O)COc1ccc(-c2nc(C(F)(F)F)c[nH]2)cc1 (racemic) | 0.009 mg/kg | 18 h | 18 h | 36 mmHg | 49 mmHg | 0.036 mg/kg |  | 9 mL/min |  | 15 mL/min |  | Time (Rattus norvegicus [1]): 7 h; Activity (Canis familiaris [27]): 17 mL/min; Activity (Canis familiaris [28]): 58 mL/min; Activity (Canis familiaris [29]): 17 mL/min; Activity (Canis familiaris [30]): 10 mL/min; Activity (Canis familiaris [31]): 52 mL/min; Activity (Rattus norvegicus [8]): 21 mmHg; Activity (Canis familiaris [32]): 63 mL/min
NNc1nncc2ccccc12 [HYDRALAZINE] |  |  |  |  |  |  |  | 66 mL/min |  |  |  | Activity (Rattus norvegicus [14]): 40 mmHg; Time (Rattus norvegicus [16]): >7 h; Activity (Rattus norvegicus [17]): 30 mmHg; Time (Rattus norvegicus [19]): 6 h
